Test results: US10040781B2, “Tank-binding kinase inhibitor compounds” (Gilead Sciences, Inc., priority 2014, dated 2018)

Key:
IKKε = IKKε (Homo sapiens (Human), UniProt Q14164); test: IKKε TR-FRET enzymatic assay; assay type: biochemical; conditions: read-out: IKKe IC50
hJAK2 = hJAK2 (Homo sapiens (Human), UniProt O60674); test: hJAK2 LANCE TR-FRET enzymatic assay; assay type: biochemical; conditions: read-out: JAK2 IC50
TBK1 = TBK1 (Homo sapiens (Human), UniProt Q9UHD2); test: TBK1 TR-FRET enzymatic assay;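 further: phosphorylation of a biotinylated Ser/Thr peptide by purified full-length recombinant TBK1, read by TR-FRET after 240 min at 25 °C, IC50 is the geometric mean of at least four runs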
Chain of TBK1 (Q9UHD2 whole entry): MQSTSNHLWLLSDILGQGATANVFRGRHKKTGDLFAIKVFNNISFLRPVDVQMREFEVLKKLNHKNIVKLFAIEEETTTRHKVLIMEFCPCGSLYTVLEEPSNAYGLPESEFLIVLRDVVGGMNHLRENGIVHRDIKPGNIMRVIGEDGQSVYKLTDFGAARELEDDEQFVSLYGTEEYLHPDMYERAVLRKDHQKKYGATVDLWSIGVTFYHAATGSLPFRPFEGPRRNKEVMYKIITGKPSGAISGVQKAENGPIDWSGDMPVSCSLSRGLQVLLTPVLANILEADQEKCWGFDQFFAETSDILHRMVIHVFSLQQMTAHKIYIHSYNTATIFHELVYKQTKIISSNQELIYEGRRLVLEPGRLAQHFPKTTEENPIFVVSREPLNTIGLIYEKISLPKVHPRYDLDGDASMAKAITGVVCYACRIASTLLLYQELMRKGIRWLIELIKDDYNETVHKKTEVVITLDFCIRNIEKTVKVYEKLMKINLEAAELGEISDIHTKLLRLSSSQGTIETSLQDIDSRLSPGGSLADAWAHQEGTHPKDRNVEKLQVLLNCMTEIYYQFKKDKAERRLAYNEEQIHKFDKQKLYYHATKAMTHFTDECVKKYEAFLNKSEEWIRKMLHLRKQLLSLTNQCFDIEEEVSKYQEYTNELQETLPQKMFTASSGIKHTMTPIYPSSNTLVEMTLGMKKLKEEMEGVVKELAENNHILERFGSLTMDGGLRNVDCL
Procedure: Enzymatic activity of IKKε and TBK1 was measured using a homogeneous time resolved fluorescence resonance energy transfer (TR-FRET) assay that monitors enzyme dependent phosphorylation of a biotinylated serine/threonine peptide substrate. […] TBK1 and IKKε were expressed and purified as full length recombinant proteins. Detection reagents for the assay were purchased from Cisbio. […] After an assay reaction time of 240 minutes at 25° C., reactions were terminated with EDTA.
All IC50 values represent geometric mean values of a minimum of four determinations.

Chain of hJAK2 (O60674 whole entry): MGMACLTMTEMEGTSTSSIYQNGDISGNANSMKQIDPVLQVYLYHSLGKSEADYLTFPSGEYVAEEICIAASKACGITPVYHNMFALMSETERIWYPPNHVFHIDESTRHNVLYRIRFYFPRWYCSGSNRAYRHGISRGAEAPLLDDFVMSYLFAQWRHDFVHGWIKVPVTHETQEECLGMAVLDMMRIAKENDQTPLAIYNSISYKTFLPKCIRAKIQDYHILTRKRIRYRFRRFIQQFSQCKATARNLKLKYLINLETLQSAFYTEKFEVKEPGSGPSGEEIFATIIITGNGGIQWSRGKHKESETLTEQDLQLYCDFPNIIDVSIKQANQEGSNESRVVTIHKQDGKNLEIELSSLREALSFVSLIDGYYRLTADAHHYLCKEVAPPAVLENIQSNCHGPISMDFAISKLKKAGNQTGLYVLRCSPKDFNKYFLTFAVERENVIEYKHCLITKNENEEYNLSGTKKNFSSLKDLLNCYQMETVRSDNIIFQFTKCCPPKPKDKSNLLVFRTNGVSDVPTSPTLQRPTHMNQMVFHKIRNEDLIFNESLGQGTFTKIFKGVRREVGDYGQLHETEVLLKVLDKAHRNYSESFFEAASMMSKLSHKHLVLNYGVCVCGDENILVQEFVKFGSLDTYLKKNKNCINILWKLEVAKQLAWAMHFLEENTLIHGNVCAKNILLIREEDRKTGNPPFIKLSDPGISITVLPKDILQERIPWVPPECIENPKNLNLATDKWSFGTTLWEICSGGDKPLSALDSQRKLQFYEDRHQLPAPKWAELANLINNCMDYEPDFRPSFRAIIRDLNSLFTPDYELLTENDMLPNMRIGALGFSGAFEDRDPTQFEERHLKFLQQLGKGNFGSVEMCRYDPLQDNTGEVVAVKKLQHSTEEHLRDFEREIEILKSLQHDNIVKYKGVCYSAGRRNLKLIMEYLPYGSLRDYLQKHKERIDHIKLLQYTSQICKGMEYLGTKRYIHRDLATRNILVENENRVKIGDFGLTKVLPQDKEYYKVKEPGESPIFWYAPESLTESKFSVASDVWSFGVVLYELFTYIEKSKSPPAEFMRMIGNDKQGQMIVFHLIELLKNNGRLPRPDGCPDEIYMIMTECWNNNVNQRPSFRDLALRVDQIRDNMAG
Chain of IKKε (Q14164 whole entry): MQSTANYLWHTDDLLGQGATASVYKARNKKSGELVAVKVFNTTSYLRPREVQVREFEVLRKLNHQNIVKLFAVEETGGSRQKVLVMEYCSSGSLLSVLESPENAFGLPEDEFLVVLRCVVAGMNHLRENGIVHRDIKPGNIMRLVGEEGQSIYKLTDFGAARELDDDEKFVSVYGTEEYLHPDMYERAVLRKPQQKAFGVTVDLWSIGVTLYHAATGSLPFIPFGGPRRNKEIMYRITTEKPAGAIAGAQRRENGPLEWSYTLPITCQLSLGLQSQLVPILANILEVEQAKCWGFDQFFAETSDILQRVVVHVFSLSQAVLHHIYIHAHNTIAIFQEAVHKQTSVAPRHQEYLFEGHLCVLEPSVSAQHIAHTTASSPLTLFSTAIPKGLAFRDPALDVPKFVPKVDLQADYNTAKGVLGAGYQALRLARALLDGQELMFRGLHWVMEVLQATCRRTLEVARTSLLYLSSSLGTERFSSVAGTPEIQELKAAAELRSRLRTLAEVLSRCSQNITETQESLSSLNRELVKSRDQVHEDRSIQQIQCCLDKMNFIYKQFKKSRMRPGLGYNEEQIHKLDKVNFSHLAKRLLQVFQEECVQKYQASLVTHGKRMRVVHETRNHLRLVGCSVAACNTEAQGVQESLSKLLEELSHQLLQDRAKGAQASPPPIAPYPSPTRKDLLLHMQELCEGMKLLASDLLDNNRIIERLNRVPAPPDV

| IC50 (IKKε) | IC50 (hJAK2) | IC50 (TBK1) | SMILES |
| --- | --- | --- | --- |
| 20 nM | > 1000 nM | 9 nM | COc1cc(Nc2ncnc(-c3ccc(OC4CCOCC4)c(C#N)c3)n2)ccc1OC(F)F [Example 31, 5-(4-((4-(difluoromethoxy)-3-methoxyphenyl)amino)-1,3,5-triazin-2-yl)-2-((tetrahydro-2H-pyran-4-yl)oxy)benzonitrile] |
| 6 nM | > 1000 nM | 3 nM | N#Cc1cc(-c2ncnc(Nc3ccc(N4CCN(C5COC5)CC4)c(C#N)c3)n2)ccc1OC1CCOCC1 [Example 38, 5-((4-(3-cyano-4-((tetrahydro-2H-pyran-4-yl)oxy)phenyl)-1,3,5-triazin-2-yl)amino)-2-(4-(oxetan-3-yl)piperazin-1-yl)benzonitrile] |
| 35 nM | > 1000 nM | 6 nM | C=CC(=O)Nc1ccc(Nc2ncnc(-c3ccc(OC4CCOCC4)c(C#N)c3)n2)cc1 [Example 39, N-(4-((4-(3-cyano-4-((tetrahydro-2H-pyran-4-yl)oxy)phenyl)-1,3,5-triazin-2-yl)amino)phenyl)acrylamide] |
| 23 nM | > 1000 nM | 6 nM | CC(C)(O)c1ccc(Nc2ncnc(-c3ccc(OC4CCOCC4)c(C#N)c3)n2)cc1 [Example 40, 5-(4-((4-(2-hydroxypropan-2-yl)phenyl)amino)-1,3,5-triazin-2-yl)-2-((tetrahydro-2H-pyran-4-yl)oxy)benzonitrile] |
| 110 nM | > 1000 nM | 35 nM | CNC(=O)N1CCC(Oc2ccc(-c3ncnc(Nc4ccc(N5CCN(C6COC6)CC5)cc4)n3)cc2C#N)CC1 [Example 41, 4-(2-cyano-4-(4-((4-(4-(oxetan-3-yl)piperazin-1-yl)phenyl)amino)-1,3,5-triazin-2-yl)phenoxy)-N-methylpiperidine-1-carboxamide] |
| 71 nM | 24 nM | 35 nM | N#Cc1cc(-c2ncnc(Nc3ccc(N4CCOCC4)cc3)n2)ccc1NC(=O)C1CC1 [Example 42, N-(2-cyano-4-(4-((4-morpholinophenyl)amino)-1,3,5-triazin-2-yl)phenyl)cyclopropanecarboxamide] |
| 243 nM | > 1000 nM | 202 nM | CC(C)(O)C(=O)N1CCC(Oc2ccc(-c3ncnc(Nc4ccc(N5CCN(C6COC6)CC5)cc4)n3)cc2C#N)CC1 [Example 45, 2-((1-(2-hydroxy-2-methylpropanoyl)piperidin-4-yl)oxy)-5-(4-((4-(4-(oxetan-3-yl)piperazin-1-yl)phenyl)amino)-1,3,5-triazin-2-yl)benzonitrile] |
| 18 nM | 261 nM | 5 nM | N#Cc1cc(-c2ncnc(Nc3ccc(N4CCOCC4)cc3)n2)ccc1N1CCCC1 [Example 53, 5-(4-((4-morpholinophenyl)amino)-1,3,5-triazin-2-yl)-2-(pyrrolidin-1-yl)benzonitrile] |
| 3 nM | > 1000 nM | 2 nM | N#Cc1cc(-c2ncnc(Nc3ccc(C4CCN(C5COC5)CC4)cc3)n2)ccc1OC1CCN(C(=O)CO)CC1 [Example 56, 2-((1-(2-hydroxyacetyl)piperidin-4-yl)oxy)-5-(4-((4-(1-(oxetan-3-yl)piperidin-4-yl)phenyl)amino)-1,3,5-triazin-2-yl)benzonitrile] |
| 4 nM | 455 nM | 2 nM | N#Cc1cc(-c2ncnc(Nc3ccc(N4CCN(C5COC5)CC4)cc3)n2)ccc1OCC1CC1 [Example 58, 2-(cyclopropylmethoxy)-5-(4-((4-(4-(oxetan-3-yl)piperazin-1-yl)phenyl)amino)-1,3,5-triazin-2-yl)benzonitrile] |
| 83 nM | > 1000 nM | 55 nM | Cn1ccc(Nc2ncnc(-c3ccc(OC4CCOCC4)c(C#N)c3)n2)n1 [Example 59, 5-(4-((1-methyl-1H-pyrazol-3-yl)amino)-1,3,5-triazin-2-yl)-2-((tetrahydro-2H-pyran-4-yl)oxy)benzonitrile] |

Second part, the molecule before the results:

| SMILES | IC50 (IKKε) | IC50 (hJAK2) | IC50 (TBK1) |
| --- | --- | --- | --- |
| N#Cc1cc(-c2ncnc(Nc3ccc(N4CCN(C5COC5)CC4)cc3)n2)ccc1N1CCCC1=O [Example 28, 5-[4-[4-[4-(oxetan-3-yl)piperazin-1-yl]anilino]-1,3,5-triazin-2-yl]-2-(2-oxopyrrolidin-1-yl)benzonitrile] | 529 nM | 583 nM | 225 nM |
| COc1cc(Nc2ncnc(-c3ccc(OC4CCOCC4)c(C#N)c3)n2)ccc1N1CCN(C(C)=O)CC1 [Example 32, 5-(4-((4-(4-acetylpiperazin-1-yl)-3-methoxyphenyl)amino)-1,3,5-triazin-2-yl)-2-((tetrahydro-2H-pyran-4-yl)oxy)benzonitrile] | 2 nM | 68 nM | 1 nM |
| COc1cc(Nc2ncnc(-c3ccc(OC4CCS(=O)(=O)CC4)c(C#N)c3)n2)ccc1N1CCN(C2COC2)CC1 [Example 33, 2-((1,1-dioxidotetrahydro-2H-thiopyran-4-yl)oxy)-5-(4-((3-methoxy-4-(4-(oxetan-3-yl)piperazin-1-yl)phenyl)amino)-1,3,5-triazin-2-yl)benzonitrile] | 18 nM | 59 nM | 4 nM |
| N#Cc1cc(-c2ncnc(Nc3ccc(N4CCN(C5COC5)CC4)cc3)n2)ccc1OC1CCCOC1 (stereo not drawn) [Example 34, 5-(4-((4-(4-(oxetan-3-yl)piperazin-1-yl)phenyl)amino)-1,3,5-triazin-2-yl)-2-((tetrahydro-2H-pyran-3-yl)oxy)benzonitrile] | 45 nM | > 1000 nM | 12 nM |
| N#Cc1cc(-c2ncnc(Nc3ccc(N4CCN(C5COC5)CC4)cc3)n2)ccc1N1CC(O)C1 [Example 35, 2-(3-hydroxyazetidin-1-yl)-5-(4-((4-(4-(oxetan-3-yl)piperazin-1-yl)phenyl)amino)-1,3,5-triazin-2-yl)benzonitrile] | 29 nM | 166 nM | 7 nM |
| N#Cc1cc(Nc2ncnc(-c3ccc(OC4CCOCC4)c(C#N)c3)n2)ccc1OC1CCOCC1 [Example 36, 5-((4-(3-cyano-4-((tetrahydro-2H-pyran-4-yl)oxy)phenyl)-1,3,5-triazin-2-yl)amino)-2-((tetrahydro-2H-pyran-4-yl)oxy)benzonitrile] | 12 nM | > 1000 nM | 10 nM |
| N#Cc1cc(-c2ncnc(Nc3ccc(N4CCN(C5COC5)CC4)nc3)n2)ccc1OC1CCOCC1 [Example 43, 5-(4-((6-(4-(oxetan-3-yl)piperazin-1-yl)pyridin-3-yl)amino)-1,3,5-triazin-2-yl)-2-((tetrahydro-2H-pyran-4-yl)oxy)benzonitrile] | 15 nM | > 1000 nM | 7 nM |
| CC(C)NC(=O)c1ccc(Nc2ncnc(-c3ccc(OC4CCOCC4)c(C#N)c3)n2)cc1 [Example 46, 4-((4-(3-cyano-4-((tetrahydro-2H-pyran-4-yl)oxy)phenyl)-1,3,5-triazin-2-yl)amino)-N-isopropylbenzamide] | 9 nM | 670 nM | 3 nM |
| CC(C)(O)c1cccc(Nc2ncnc(-c3ccc(OC4CCOCC4)c(C#N)c3)n2)c1 [Example 47, 5-(4-((3-(2-hydroxypropan-2-yl)phenyl)amino)-1,3,5-triazin-2-yl)-2-((tetrahydro-2H-pyran-4-yl)oxy)benzonitrile] | 14 nM | 811 nM | 2 nM |
| N#Cc1cc(-c2ncnc(Nc3cccc(C(O)C(F)(F)F)c3)n2)ccc1OC1CCOCC1 (stereo not drawn) [Example 48, 2-((tetrahydro-2H-pyran-4-yl)oxy)-5-(4-((3-(2,2,2-trifluoro-1-hydroxyethyl)phenyl)amino)-1,3,5-triazin-2-yl)benzonitrile] | 31 nM | > 1000 nM | 3 nM |
| N#Cc1cc(-c2ncnc(Nc3ccc(N4CCOCC4)cc3)n2)ccc1OC1CCOCC1 [Example 49, 5-(4-((4-morpholinophenyl)amino)-1,3,5-triazin-2-yl)-2-((tetrahydro-2H-pyran-4-yl)oxy)benzonitrile] | 7 nM | 436 nM | 2 nM |
| N#Cc1cc(-c2ncnc(Nc3ccc(N4CCN(C5COC5)CC4)cc3)n2)ccc1OC1CCN(C(=O)CNC=O)CC1 [Example 51, N-(2-(4-(2-cyano-4-(4-((4-(4-(oxetan-3-yl)piperazin-1-yl)phenyl)amino)-1,3,5-triazin-2-yl)phenoxy)piperidin-1-yl)-2-oxoethyl)formamide] | 79 nM | 408 nM | 26 nM |
| CC(=O)NCC(=O)N1CCC(Oc2ccc(-c3ncnc(Nc4ccc(N5CCN(C6COC6)CC5)cc4)n3)cc2C#N)CC1 [Example 52, N-(2-(4-(2-cyano-4-(4-((4-(4-(oxetan-3-yl)piperazin-1-yl)phenyl)amino)-1,3,5-triazin-2-yl)phenoxy)piperidin-1-yl)-2-oxoethyl)acetamide] | 223 nM | 491 nM | 65 nM |
| N#Cc1cc(-c2ncnc(Nc3ccc(C4CCN(C5COC5)CC4)cc3)n2)ccc1OC1CCOCC1 [Example 54, 5-(4-((4-(1-(oxetan-3-yl)piperidin-4-yl)phenyl)amino)-1,3,5-triazin-2-yl)-2-((tetrahydro-2H-pyran-4-yl)oxy)benzonitrile] | 4 nM | > 1000 nM | 2 nM |
| N#Cc1cc(-c2ncnc(Nc3ccc(C(N)=O)cc3)n2)ccc1OC1CCOCC1 [Example 55] | 5 nM | > 1000 nM | 2 nM |
| CS(=O)(=O)c1ccc(Nc2ncnc(-c3ccc(OC4CCN(C(=O)CO)CC4)c(C#N)c3)n2)cc1 [Example 57, 2-((1-(2-hydroxyacetyl)piperidin-4-yl)oxy)-5-(4-((4-(methylsulfonyl)phenyl)amino)-1,3,5-triazin-2-yl)benzonitrile] | 8 nM | > 1000 nM | 5 nM |
| N#Cc1cc(-c2ncnc(Nc3ccc(N4CCN(C5COC5)CC4)cc3)n2)ccc1OC1CCC(F)(F)CC1 [Example 60, 2-((4,4-difluorocyclohexyl)oxy)-5-(4-((4-(4-(oxetan-3-yl)piperazin-1-yl)phenyl)amino)-1,3,5-triazin-2-yl)benzonitrile] | 7 nM | 655 nM | 3 nM |
